Active and inactive are the calls of the source. The rule behind the calls is not given here. Where a SMILES comes first, the peptide text is derived from it. The star is where a group is joined. Cbz = O=C(OCc1ccccc1)* A value given as a limit tells only on which side of the number the result lay.

As a reminder, the IC50 is the concentration needed to halve the response being measured. The Kd is the concentration at which binding is half-saturated.

Data set [1] relates to HepG2-ARE-C8. Briefly: Activation of Nrf2-ARE pathway in human HepG2-ARE-C8 cells assessed as fold upregulation of ARE-inducing luciferase activity at 160 uM measured after 24 hrs by luciferase reporter gene assay. It counts as cell-based. The settings on record: filed as activator.
For data set [2], the system named is THP-1. Briefly: Antiinflammatory activity in PMA-differentiated and LPS-stimulated human THP-1 cell model assessed as inhibition of NLRP3 inflammasome-driven IL-1beta production at 30 uM incubated for 24 hrs followed by LPS stimulation for 3 hrs and ATP addition for 1 hr by ELISA. Type of data set: functional. Details: scale not given: the % may be the effect or the level left. Background: An ELISA detects its analyte on a solid surface through an enzyme-linked reagent.

The test system of data set [3] is THP-1. Briefly: Antiinflammatory activity in PMA-differentiated and LPS-stimulated human THP-1 cell model assessed as inhibition of NLRP3 inflammasome-driven IL-1beta production at 15 uM incubated for 24 hrs followed by LPS stimulation for 3 hrs and ATP addition for 1 hr by ELISA. Type of data set: functional. Also noted: scale not given: the % may be the effect or the level left.

The nature of data set [4]: Cytotoxicity against human THP-1 cells assessed as reduction in cell viability measured after 24 hrs by MTT assay. Type of data set: toxicity, cell-based. (Tetrazolium assays rely on reduction of a dye to a coloured formazan, in cell work by metabolically active cells.)
The test system of data set [5] is HepG2-ARE-C8. Briefly: Activation of Nrf2-ARE pathway in human HepG2-ARE-C8 cells assessed as fold upregulation of ARE-inducing luciferase activity at 40 uM measured after 24 hrs by luciferase reporter gene assay. Type of data set: cell-based. To be noted: filed as activator. In general terms: A reporter such as luciferase makes a cellular process visible.
In data set [6] the target is T1, Nuclear factor erythroid 2-related factor 2 (Rattus norvegicus) (UniProt O54968).
T1 sequence (whole entry): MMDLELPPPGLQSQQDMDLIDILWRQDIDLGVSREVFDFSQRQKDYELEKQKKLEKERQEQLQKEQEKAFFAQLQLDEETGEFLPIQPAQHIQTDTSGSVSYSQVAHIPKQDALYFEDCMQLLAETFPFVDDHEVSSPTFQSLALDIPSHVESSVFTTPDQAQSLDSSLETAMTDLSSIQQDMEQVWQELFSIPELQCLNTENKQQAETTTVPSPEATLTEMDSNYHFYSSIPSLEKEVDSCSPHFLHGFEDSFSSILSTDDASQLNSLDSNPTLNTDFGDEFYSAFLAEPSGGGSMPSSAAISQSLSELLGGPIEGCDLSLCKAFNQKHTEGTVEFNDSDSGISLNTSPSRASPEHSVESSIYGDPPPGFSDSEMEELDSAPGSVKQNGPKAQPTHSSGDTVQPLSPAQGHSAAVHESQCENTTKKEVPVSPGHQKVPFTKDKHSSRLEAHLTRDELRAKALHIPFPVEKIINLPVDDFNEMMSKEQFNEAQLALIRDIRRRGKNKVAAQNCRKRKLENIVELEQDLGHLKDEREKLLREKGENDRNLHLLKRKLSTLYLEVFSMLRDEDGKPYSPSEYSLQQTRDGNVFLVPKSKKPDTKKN
Put plainly: Inhibition of Nrf2 degradation in rat PC-12 cells assessed as accumulation of ubiquitinated Nrf2 at 40 uM incubated for 6 hrs by Western blot analysis. Type of data set: cell-based.

Data set [7] deals with THP-1. Briefly: Antiinflammatory activity in PMA-differentiated and LPS-stimulated human THP-1 cell model assessed as inhibition of NLRP3 inflammasome-driven IL-1beta production at 45 uM incubated for 24 hrs followed by LPS stimulation for 3 hrs and ATP addition for 1 hr by ELISA. Type of data set: functional. Details: scale not given: the % may be the effect or the level left.

Data set [8] has as its system HepG2-ARE-C8. Put plainly: Activation of Nrf2-ARE pathway in human HepG2-ARE-C8 cells assessed as fold upregulation of ARE-inducing luciferase activity at 80 uM measured after 24 hrs by luciferase reporter gene assay. Type of data set: cell-based. To be noted: filed as activator.
In data set [9] the target is T1, Nuclear factor erythroid 2-related factor 2 (Rattus norvegicus). Briefly: Inhibition of Nrf2 degradation in rat PC-12 cells assessed as increase in ubiquitinated Nrf2 at 40 uM incubated for 6 hrs in presence of proteasome inhibitor MG132 by co-immunoprecipitation based Western blot analysis. It counts as cell-based.
Data set [10] deals with HepG2-ARE-C8. Put plainly: Activation of Nrf2-ARE pathway in human HepG2-ARE-C8 cells assessed as fold upregulation of ARE-inducing luciferase activity at 20 uM measured after 24 hrs by luciferase reporter gene assay. Type of data set: cell-based. To be noted: filed as activator.
Data set [11] addresses T1, Nuclear factor erythroid 2-related factor 2 (Rattus norvegicus). Put plainly: Inhibition of Nrf2 degradation in rat PC-12 cells assessed as accumulation of ubiquitinated Nrf2 at 40 uM incubated for 6 hrs in presence of proteasome inhibitor MG132 by Western blot analysis. Type of data set: cell-based.
The target is the same in data set [12]. Briefly: Inhibition of Nrf2 degradation in rat PC-12 cells assessed as increase in ubiquitinated Nrf2 at 40 uM incubated for 6 hrs by co-immunoprecipitation based Western blot analysis. Type of data set: cell-based.
Data set [13] relates to HepG2-ARE-C8. Briefly: Activation of Nrf2-ARE pathway in human HepG2-ARE-C8 cells assessed as fold upregulation of ARE-inducing luciferase activity at 10 uM measured after 24 hrs by luciferase reporter gene assay. Type of data set: cell-based. The settings on record: filed as activator.
The target of data set [14] is 26S proteasome non-ATPase regulatory subunit 11 (Homo sapiens, UniProt O00231). Briefly: Binding affinity to biotinylated recombinant Rpn6 (unknown origin) assessed as dissociation constant by biolayer interferometry analysis.
For data set [15], the target named is 26S proteasome non-ATPase regulatory subunit 11 (Rattus norvegicus) (UniProt F1LMZ8). Put plainly: Binding affinity to recombinant Rpn6 in rat PC-12 cells at 60 uM measured after 12 hrs by DAPI staining based fluorescence microscope assay. It counts as cell-based. To be noted: filed as activator.
Data set [16] deals with PC-12. Put plainly: Induction of cell membrane permeability in rat PC-12 cells at 60 uM measured after 10 hrs by fluorescence microscopic analysis. It counts as cell-based.
Data set [17] deals with T1, Nuclear factor erythroid 2-related factor 2 (Rattus norvegicus). Put plainly: Activation of Nrf2 in rat PC-12 cells assessed as upregulation of Nrf2 protein expression measured after 24 hrs by Western blot analysis. Type of data set: cell-based. To be noted: filed as activator, dose 10-40 µM, DDE = dose-dependent effect.
For data set [18] the target is unchanged. Put plainly: Activation of Nrf2 in rat PC-12 cells assessed as reduction of Nrf2 in cytoplasm at 20 uM measured after 4 hrs by western blot analysis. It counts as cell-based. The settings on record: filed as activator.
Data set [19] shares this target. Briefly: Activation of Nrf2 in rat PC-12 cells assessed as upregulation of NQO1 protein expression measured after 24 hrs by Western blot analysis. Type of data set: cell-based. The settings on record: filed as activator, dose 10-40 µM, DDE = dose-dependent effect.
For data set [20], the system named is PC-12. Briefly: Cytoprotective activity against H2O2-induced oxidative damage in rat PC-12 assessed as increase in cell viability preincubated for 24 hrs followed by H2O2 stimulation for 3 hrs by MTT assay. To be noted: dose 5-80 µM, DDE = dose-dependent effect. It counts as functional, cell-based.
Data set [21] concerns the target T1, Nuclear factor erythroid 2-related factor 2 (Rattus norvegicus). Put plainly: Activation of Nrf2 in rat PC-12 cells assessed as upregulation of HO-1 protein expression measured after 24 hrs by Western blot analysis. It counts as cell-based. To be noted: filed as activator, dose 10-40 µM, DDE = dose-dependent effect.
Data set [22] deals with 26S proteasome non-ATPase regulatory subunit 11 (Rattus norvegicus) (UniProt F1LMZ8). Put plainly: Binding affinity to biotinylated recombinant Rpn6 in rat PC-12 cells at 100 to 200 uM incubation for overnight by pull-down assay based SDS-PAGE analysis. Type of data set: cell-based. The settings on record: filed as activator, dose 100-200 µM, DDE = dose-dependent effect.

Data set [23] concerns the target T1, Nuclear factor erythroid 2-related factor 2 (Rattus norvegicus). Briefly: Activation of Nrf2 in rat PC-12 cells assessed as upregulation of Nrf2 in nucleus at 20 uM measured after 4 hrs by western blot analysis. To be noted: filed as activator. Type of data set: cell-based.
Data set [24] shares this target. Put plainly: Inhibition of Nrf2 degradation in rat PC-12 cells assessed as accumulation of ubiquitinated Nrf2 at 10 uM incubated for 6 hrs by Western blot analysis. It counts as cell-based.

Chain of 26S proteasome non-ATPase regulatory subunit 11 (O00231 whole entry): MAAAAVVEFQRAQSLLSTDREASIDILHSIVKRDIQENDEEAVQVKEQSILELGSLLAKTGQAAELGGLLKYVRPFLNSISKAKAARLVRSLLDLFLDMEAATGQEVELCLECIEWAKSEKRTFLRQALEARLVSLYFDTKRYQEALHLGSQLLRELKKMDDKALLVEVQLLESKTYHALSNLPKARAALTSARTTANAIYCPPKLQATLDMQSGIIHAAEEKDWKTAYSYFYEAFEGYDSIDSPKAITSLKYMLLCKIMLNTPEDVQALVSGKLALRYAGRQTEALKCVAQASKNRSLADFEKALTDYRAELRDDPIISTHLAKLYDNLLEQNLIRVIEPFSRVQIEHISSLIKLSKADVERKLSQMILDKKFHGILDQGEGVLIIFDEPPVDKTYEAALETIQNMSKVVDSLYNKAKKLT
Chain of 26S proteasome non-ATPase regulatory subunit 11 (Rattus norvegicus) (F1LMZ8 whole entry): as the sequence (O00231 whole entry) above

On to `Fc1ccc(-c2nc(-c3ccc4nc[nH]c4c3)no2)cc1`, for which the fold change (FC) stood at 31.5 with HepG2-ARE-C8 [1]; 7.5 in the data set on HepG2-ARE-C8 [5]; 19.3 in the data set with HepG2-ARE-C8 [8]; 4.19 in the data set on HepG2-ARE-C8 [10]; 4.53 in the data set with HepG2-ARE-C8 [13]. Also, the Activity in the data set with THP-1 [2] is 98.39%; in the data set on THP-1 [3], 87.24%; in the data set with THP-1 [7] it was 102.6%. Moreover, the IC50 at 24 h in data set [4] was greater than 100 µM. In addition, the result in data set [6], in data set [9], in data set [11] and in [12] was Active. The Kd in data set [14] was 8.53 µM.

Take `Cc1ccc(-c2noc(-c3ccc(F)cc3NC(=O)CCCCCNC(=S)Nc3ccc4c(c3)C(=O)OC43c4ccc(O)cc4Oc4cc(O)ccc43)n2)cn1`: the fold change (FC) in the data set on HepG2-ARE-C8 [1] worked out at 6.42; in the data set with HepG2-ARE-C8 [5] it was 2.3; in the data set on HepG2-ARE-C8 [8], 2.71; with HepG2-ARE-C8 [10], 2.28; in the data set on HepG2-ARE-C8 [13] it was 2.62. For the same compound, the outcome (in data set [15]; with PC-12 [16]) was Active. Also, the Activity in the data set with THP-1 [2] is recorded as 77.63%; in the data set with THP-1 [3], 67.9%; in the data set with THP-1 [7] it was 89.34%. In addition, the IC50 at 24 h in data set [4] is greater than 100 µM.

Take `Cc1ccc(-c2noc(-c3ccc(F)cc3NC(=O)CCCCCNC(=O)CCCC[C@@H]3SC[C@@H]4NC(=O)N[C@@H]43)n2)cn1`: the Activity result was “Dde” in [17]; “Dde” in data set [19]; “Dde” with PC-12 [20]; 64.61% in the data set with THP-1 [2]; 33.81% in the data set with THP-1 [3]; “Dde” in data set [21]. Besides, the values for the Activity (with THP-1 [7]; in data set [22]) were 97.72% and “Dde”, respectively. Moreover, the outcome in [18] and in data set [23] was Active. Besides, the fold change (FC) with HepG2-ARE-C8 [1] was determined as 11.8; with HepG2-ARE-C8 [5], 6.69; with HepG2-ARE-C8 [8] it was 7.1; in the data set on HepG2-ARE-C8 [10] it was 5.59; in the data set on HepG2-ARE-C8 [13] it was 4.96. The IC50 at 24 h in data set [4] is greater than 100 µM. In data set [14], the Kd was determined as 1.38 µM.

For `CC(C)(C)c1cc(O)ccc1O` [E319], the fold change (FC) in the data set on HepG2-ARE-C8 [1] was 15.9; with HepG2-ARE-C8 [5] it was 2.98; in the data set on HepG2-ARE-C8 [8], 12; with HepG2-ARE-C8 [10] it was 3.13; in the data set with HepG2-ARE-C8 [13], 2.94. Besides, the Activity with THP-1 [2] was 58.58%; with THP-1 [3] it was 50.88%; in the data set on THP-1 [7], 98.29%. Also, the IC50 at 24 h in data set [4] is greater than 100 µM.

As to `CC(C)C[C@@H](C=O)NC(=O)[C@H](CC(C)C)NC(=O)[C@H](CC(C)C)NC(=O)OCc1ccccc1` (Cbz-Leu-Leu-Leu-aldehyde), the outcome in [24] was Active.

For `O=C(O)CCCC[C@@H]1SC[C@@H]2NC(=O)N[C@@H]21`, the fold change (FC) in the data set on HepG2-ARE-C8 [1] was 1.55; with HepG2-ARE-C8 [5], 1.18; with HepG2-ARE-C8 [8], 1.45; in the data set on HepG2-ARE-C8 [10] it was 1.12; with HepG2-ARE-C8 [13], 1.55.

For the compound `CCNC(=O)CCCCCNC(C)=O`, the fold change (FC) was determined as 1.22 in the data set with HepG2-ARE-C8 [1]; 1.41 in the data set on HepG2-ARE-C8 [5]; 1.22 in the data set with HepG2-ARE-C8 [8]; 1.17 with HepG2-ARE-C8 [10]; 1.17 in the data set on HepG2-ARE-C8 [13]. Besides, the Activity was 3.52% in the data set on THP-1 [2], -2.73% in the data set with THP-1 [3] and 2.89% in the data set on THP-1 [7]. Further, the IC50 at 24 h in data set [4] is greater than 100 µM.

Regarding `Cc1ccc(-c2noc(-c3ccc(F)cc3)n2)cn1`, the Activity result in data set [17] was “Dde”; in [19] it was “Dde”; in the data set with THP-1 [2], 53.91%; in the data set on THP-1 [3], 49.86%; in data set [21] it was “Dde”; with THP-1 [7], 85.46%. For the same compound, the result in [18] and in data set [23] was Active. For the same compound, the fold change (FC) in the data set with HepG2-ARE-C8 [1] stood at 29.6; in the data set with HepG2-ARE-C8 [5] it was 7.14; in the data set with HepG2-ARE-C8 [8], 31.7; with HepG2-ARE-C8 [10] it was 2.75; in the data set with HepG2-ARE-C8 [13], 2.08. Besides, in [4], the IC50 at 24 h is greater than 100 µM.
